Measurements from patent US10370327B2, “Ionic liquid films with multiple functionalities for surface modification of biomedical alloys” (BOARD OF REGENTS, THE UNIVERSITY OF TEXAS SYSTEM, priority 2014, dated 2019).
Read-outs that look alike come from different tables or passages of the source. Values belong to the compound of their own block, whether it stands above or below them.

How the values were obtained:
MC3T3-E1 cell line [1] = test: MTT cytotoxicity assay, dose-response in MC3T3-E1 cells; assay type: cell-based; conditions: read-out: Toxicity IC50
From the text: Without wishing to be bound by any theory, it is believed that the ionic liquids (ILs) structures prevent the hydrophobic effects of the imidazolium cation and thus cellular uptake by the introduction of a second cationic head. These structures, which are formed by two imidazolium rings linked by an alkyl chain and anionic counterpart, may result in non-toxic compounds because the dicationic structure will not be able to penetrate and alter the physical properties of the lipid bilayer. The ionic liquids were synthesized and performed preliminary studies with the dicationic imidazolium-based IL compounds as described above, and the IC50 values were assessed through MTT assay (Gindri et al., 2014).
The ionic liquids were synthesized and performed preliminary studies with the dicationic imidazolium-based IL compounds as described above, and the IC50 values were assessed through MTT assay (Egorova et al., 2014). The toxicity of ionic liquids was accessed using MC3T3-E1 cell lines. The cells were plated in 6-well plates and after 24 h, cells were treated with media containing a range of concentrations of ionic liquids. All concentrations tested for generation of dose-response curves. A non-linear regression sigmoidal dose-response curve was fitted to each set of values to allow the calculation of IC50 values.

[2] = Thermal analysis of pure ionic liquid and equimolar mixture with TiO2 nanoparticles; assay type: physicochemical
Procedure: In order to evaluate the affinity of ionic liquids with the titanium surface, experiments were conducted with imidazole derived ionic liquids having as contra-ion the anions Br^−, BF4^− and NTf2^−. In the study, TiO2 nanoparticles were used instead of bulk titanium in order to allow for a better understanding of the interaction of the selected ionic liquids with the Ti oxide film (TiO2). Thermal behavior of TiO2 pure (nanoparticles), ionic liquid pure and the equimolar mixture of TiO2 and the different ionic liquids attempted were evaluated. […] Based upon the loss of a glass transition and the introduction of a new melting point for the TiO2 nanoparticle and the [DBMIM]2[NTf2], without wishing to be bound by any theory, it is believed that a more organized structural arrangement is formed (Grindri, et al., 2014).

[3] = DLS of TiO2 particles and equimolar TiO2 + ionic liquid; assay type: physicochemical; conditions: for Rh1 hydrodynamic radius: IL + TiO2, relaxation mode 1; for Rh2 hydrodynamic radius: IL + TiO2, relaxation mode 2; for Thickness of IL film on TiO2 particles: difference IL + TiO2 minus TiO2
Procedure: To evaluate the morphologic characteristics of new structures formed by TiO2+ionic liquid both DLS and SEM techniques were used. […] DLS experiments were performed with TiO2 particles only, and with solutions of equimolar amounts of TiO2+ionic liquid. The hydrodynamic radius (Rh) of pure TiO2 particles and mixture of TiO2+ionic liquid was monitored and compared in order to analyze the formation of new organized phases related to ionic liquid film adhesion on TiO2 particles. […] The value from the difference between the size of TiO2+ionic liquid and TiO2 was used to calculate ionic liquid film thickness formed on TiO2 particles.
Comparing the data between pure TiO2 and the mixtures of [DBMIM]2[Br], [DBMIM]2[BF4] and [DBMIM]2[NTf2], it can be observed that in the first relaxation mode (Rh1) a small difference was detected between the size of the particles, which can be related with the single TiO2 nanoparticles, [DBMIM]2[Br], [DBMIM]2[BF4] and [DBMIM]2[NTf2] dispersed in solution. However, in the second relaxation mode a significant difference was noted between the size of pure TiO2 nanoparticles and TiO2+ionic liquid (Table 6). It was observed that Rh2 tended to increase with ionic liquid presence, which thus indicates film formation on the particles surface. Another interesting characteristic from the DLS results is that film thickness increased with hydrophobicity of anions (FIG. 1), which is in agreement with the trend reported by Ulbricht and Wittmar, 2012.

S. mutans = S. mutans planktonic and biofilm CFU on IL-coated Ti in artificial saliva/BHI; assay type: cell-based, Streptococcus mutans
Procedure: To determine if ILs retain antimicrobial activity when applied to Ti, preliminary experiments with two ILs (IL9 and IL12) and S. mutans, an early colonizer. Control Ti, IL9-coated Ti, and IL12-coated Ti were immersed in artificial saliva/brain heart infusion (BHI) medium containing S. mutans for 24 h and 72 h. After this period, planktonic bacterial cells in the fluid medium in which disks were immersed, and biofilm cells, adhered to the disk surface, were quantified by serial dilution and plating.

[4] = tested on: osteoblast-like cells (MC3T3-E1); test: Alkaline phosphatase activity / osteoblast differentiation on IL-coated Ti; assay type: cell-based; conditions: day 1 and day 7
From the text: FIGS. 6A-6F show osteoblast identification through alkaline phosphatase assay. Ti Control on day 1 (FIG. 6A) and day 7 (FIG. 6D) along with IL9 coated Ti shown on day 1 (FIG. 6B) and day 7 (FIG. 6E) are shown. […] Cell differentiation was observed after 7 days on Ti control and IL9 coated Ti in which osteoblast are distinguished from stem cells by the purple color of the stain as indicated by the black arrows. […] As such, these compounds can be considered to be non-toxic to cells while still maintaining anti-microbial properties.
Experiments were performed in which Ti control disks, IL9-coated Ti, and IL12-coated Ti were exposed to gingival epithelial (HGF-1) and osteoblast-like cells (MC3T3-E1) during periods of 1 and 7 days. It was observed that after 1 day both Ti control and IL-coated Ti were covered with a layer of osteoblast-like cells (FIGS. 6A & 6B) illustrating the initial cell attachment on the surface. […] In vitro and in vivo osteoblast cell differentiation can be characterized during a phase denominated matrix maturation. During this period, a high expression of alkaline phosphatase (AP) is observed and can be used as an early differentiation marker to evaluate the differentiation of stem cells into osteoblasts (Shang et al., 2014 and Wang et al., 2012). […]

[5] = tested on: osteoblast-like cells (MC3T3-E1); test: Cell proliferation (MTT) on IL-coated Ti, osteoblast-like cells; assay type: cell-based; conditions: MC3T3-E1, 1 and 7 days
[6] = tested on: gingival epithelial (HGF-1); test: Cell proliferation (MTT) on IL-coated Ti, gingival epithelial cells; assay type: cell-based; conditions: HGF-1, 1 and 7 days
MC3T3-E1 cell line [7] = conditions: monocationic analogue of IL1, comparison value; read-out: IC50 of monocationic IL; cited from earlier work

Compound: 1,8-Bis(3-methylimidazolium-1-yl)octane diascorbate [IL-2]
IC50 (MC3T3-E1 cell line [1]): 3.6 ± 0.6 mM

Compound: 1,8-Bis(3-methylimidazolium-1-yl)octane dihistidine [IL-5]
IC50 (MC3T3-E1 cell line [1]): 25.7 ± 8.7 mM

Compound: 1,8-Bis(3-methylimidazolium-1-yl)octane dileucine [IL-4]
IC50 (MC3T3-E1 cell line [1]): 12.5 ± 0.2 mM

Compound: 1,8-Bis(3-methylimidazolium-1-yl)octane dimethionine [IL-6]
IC50 (MC3T3-E1 cell line [1]): 24.2 ± 10.3 mM

Compound: 1,8-Bis(3-methylimidazolium-1-yl)octane diphenylalanine [IL-3]
IC50 (MC3T3-E1 cell line [1]): 8.3 ± 3 mM

Compound: 1,8-bis(3-methylimidazolium-1-yl)octane bis (trifluoromethane) sulfonimide [IL-14]
Td1 first decomposition temperature ([2]; IL + TiO2 equimolar mixture): 463 °C
Td1 first decomposition temperature ([2]; pure ionic liquid): 473 °C
Rh1 hydrodynamic radius [3]: 1.6 nm
Rh2 hydrodynamic radius [3]: 894.6 nm
Thickness of IL film on TiO2 particles ([3]; relaxation mode 1): 0.9 nm
Thickness of IL film on TiO2 particles ([3]; relaxation mode 2): 591.1 nm

Td2 second decomposition temperature ([2]; IL + TiO2 equimolar mixture): 372.9 °C
Rh1 hydrodynamic radius [3]: 0.8 nm
Rh2 hydrodynamic radius [3]: 421.9 nm
Thickness of IL film on TiO2 particles ([3]; relaxation mode 1): 0.2 nm
Thickness of IL film on TiO2 particles ([3]; relaxation mode 2): 118.4 nm
Compound: C[n+]1ccn(CCCCCCCCn2cc[n+](C)c2)c1.[Br-].[Br-] [IL-1, 1,8-bis(3-methylimidazolium-1-yl) octane bromide]
Td1 first decomposition temperature ([2]; IL + TiO2 equimolar mixture): 310.0 °C
Td1 first decomposition temperature ([2]; pure ionic liquid): 307.5 °C
IC50 (MC3T3-E1 cell line [1]; Mus musculus): 24.6 ± 3.5 mM

Compound: C[n+]1ccn(CCCCCCCCCCn2cc[n+](C)c2)c1.[Br-].[Br-] [IL-7, 1,10-Bis(3-methylimidazolium-1-yl)decane dibromide]
melting point: 130.77 °C
IC50 (MC3T3-E1 cell line [1]; Mus musculus): 12.3 ± 0.1 mM

Compound: C[n+]1ccn(CCCCCCCCCCn2cc[n+](C)c2)c1 [IL-8, 1,10-Bis(3-methylimidazolium-1-yl)decane diascorbate]
IC50 (MC3T3-E1 cell line [1]): 3.1 ± 1.2 mM

Compound: C[n+]1ccn(CCCCCCCCCCn2cc[n+](C)c2)c1.NC(Cc1ccccc1)C(=O)[O-].NC(Cc1ccccc1)C(=O)[O-] [IL-9, 1,10-Bis(3-methylimidazolium-1-yl)decane diphenylalanine]
Anti-S. mutans activity of coated surface (S. mutans; 72 h trial): retain significant anti-S. mutans activity
S. mutans recovered from coated Ti surfaces (S. mutans; biofilm cells after 24 h, control Ti ~10^6 CFU): ~10^2 CFU
ALP activity / cell differentiation versus Ti control [4]: without statistically significant differences
Cell proliferation versus Ti control [5]: did not show significant differences
IC50 (MC3T3-E1 cell line [1]): 8.5 ± 1.5 mM
Cell proliferation versus Ti control [6]: did not show significant differences

Compound: CC(C)C[C@H](N)C(=O)O.CC(C)C[C@H](N)C(=O)O.C[n+]1ccn(CCCCCCCCCCn2cc[n+](C)c2)c1 [IL-10, 1,10-Bis(3-methylimidazolium-1-yl)decane dileucine]
IC50 (MC3T3-E1 cell line [1]): 12.3 ± 0.5 mM

Compound: C[n+]1ccn(CCCCCCCCCCn2cc[n+](C)c2)c1.N[C@@H](Cc1c[nH]cn1)C(=O)O.N[C@@H](Cc1c[nH]cn1)C(=O)O [IL-11, 1,10-Bis(3-methylimidazolium-1-yl)decane dihistidine]
IC50 (MC3T3-E1 cell line [1]): 12.9 ± 1.1 mM

Compound: CSCC[C@H](N)C(=O)O.CSCC[C@H](N)C(=O)O.C[n+]1ccn(CCCCCCCCCCn2cc[n+](C)c2)c1 [IL-12, 1,10-Bis(3-methylimidazolium-1-yl)decane dimethionine]
Antimicrobial activity of coated Ti against S. mutans (S. mutans; 24 h and 72 h immersion): did not show significant antimicrobial activity
IC50 (MC3T3-E1 cell line [1]): 13.9 ± 2.7 mM

Td2 second decomposition temperature ([2]; IL + TiO2 equimolar mixture): 455.8 °C
Td2 second decomposition temperature ([2]; pure ionic liquid): 455.8 °C
Rh1 hydrodynamic radius [3]: 0.7 nm
Rh2 hydrodynamic radius [3]: 513.0 nm
Thickness of IL film on TiO2 particles ([3]; relaxation mode 1): 0.1 nm
Thickness of IL film on TiO2 particles ([3]; relaxation mode 2): 209.5 nm
Compound: C[n+]1ccn(CCCCCCCCn2cc[n+](C)c2)c1.F[B-](F)(F)F.F[B-](F)(F)F [IL-13, 1,8-bis(3-methylimidazolium-1-yl) octane tetrafluorborate]
Td1 first decomposition temperature ([2]; IL + TiO2 equimolar mixture): 343.8 °C
Td1 first decomposition temperature ([2]; pure ionic liquid): 346.8 °C

Compound: CCCCCCCCn1cc[n+](C)c1 [[C8mim][Br]]
IC50 (MC3T3-E1 cell line [7]): 1.51 ± 0.2 mM
